Experimental data reported in patent US10710978B2, “STK4 inhibitors for treatment of hematologic malignancies” (Dana-Farber Cancer Institute, Inc., priority 2015, dated 2020).

Molecular target: STK4 (MST1) (Homo sapiens (Human), UniProt Q13043)
Assay: Z-lyte biochemical IC50 assay (Invitrogen)
Conditions: ATP concentration matched the Km
Protocol: STK4 (MST1), STK3 (MST2); STK24 (MST3) and MST4 Assays
Biochemical IC50s were measured at Invitrogen using Z-lyte technology. Briefly, for STK4, the 2×STK4 (MST1)/Ser/Thr 07 mixture was prepared in 50 mM HEPES pH 7.5, 0.01% BRIJ35, 10 mM MgCl2, 1 mM EGTA. The final 10 μL Kinase Reaction consisted of 6.25-160 ng STK4 (MST1) and 2 μM Ser/Thr 07 in 50 mM HEPES pH 7.5, 0.01% BRIJ-35, 10 mM MgCl2, 1 mM EGTA. After the 1 hour Kinase Reaction incubation, 5 μL of a 1:100000 dilution of Development Reagent A was added. Compounds were screened in a 10 point titration with 3-fold serial dilutions starting at a concentration of 10 μM. The biochemical IC50s against other STK family members were measured similarly. The ATP concentration used matched the Km for each kinase.

Sequence of STK4 (MST1) (Q13043 whole entry): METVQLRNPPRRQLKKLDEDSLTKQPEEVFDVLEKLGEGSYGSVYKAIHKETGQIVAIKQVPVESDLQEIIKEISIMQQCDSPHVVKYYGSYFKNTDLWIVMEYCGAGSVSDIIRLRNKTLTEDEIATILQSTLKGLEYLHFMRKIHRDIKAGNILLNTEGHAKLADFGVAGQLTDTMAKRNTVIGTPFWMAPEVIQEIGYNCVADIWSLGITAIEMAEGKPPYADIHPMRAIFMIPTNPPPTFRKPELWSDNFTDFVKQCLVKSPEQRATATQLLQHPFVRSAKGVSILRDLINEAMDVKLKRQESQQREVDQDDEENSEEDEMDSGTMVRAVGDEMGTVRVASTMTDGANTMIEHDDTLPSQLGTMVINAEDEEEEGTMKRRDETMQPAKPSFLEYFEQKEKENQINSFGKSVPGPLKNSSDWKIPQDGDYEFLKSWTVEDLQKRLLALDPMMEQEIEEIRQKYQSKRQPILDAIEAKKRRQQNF

IC50 [µM]	SMILES
0.04 to 0.2	Cc1cc(N2CCOCC2)cc2[nH]c(-c3c(NC[C@@H](O)c4cccc(Cl)c4)cc[nH]c3=O)nc12 [BMS536924, reference compound]
> 0.9	Nc1ncc(-c2cc(F)ccc2[N+](=O)[O-])cc1-c1ccc2c(c1)CCNC2=O [Compound I-7, 6-(2-amino-5-(5-fluoro-2-nitrophenyl)pyridin-3-yl)-3,4-dihydroisoquinolin-1(2H)-one]
> 0.9	COc1ccncc1-c1cnc(N)c(-c2ccc3c(c2)CCNC3=O)c1 [Compound I-8, 6-(6-amino-4′-methoxy-[3,3′-bipyridin]-5-yl)-3,4-dihydroisoquinolin-1(2H)-one]
> 0.9	N#Cc1cc(-c2cc(-c3cc([N+](=O)[O-])ccc3F)cnc2N)ccc1O [Compound I-11, 5-(2-amino-5-(2-fluoro-5-nitrophenyl)pyridin-3-yl)-2-hydroxybenzonitrile]
0.04 to 0.2	Cn1cnc2c(-c3cnc(N)c(-c4ccc5c(c4)CCNC5=O)c3)cccc21 [Compound I-14, 6-(2-amino-5-(1-methyl-1H-benzo[d]imidazol-4-yl)pyridin-3-yl)-3,4-dihydroisoquinolin-1(2H)-one]
0.04 to 0.2	Nc1ncc(-c2cc(F)cc([N+](=O)[O-])c2)cc1-c1ccc2c(c1)CCNC2=O [Compound I-17, 6-(2-amino-5-(3-fluoro-5-nitrophenyl)pyridin-3-yl)-3,4-dihydroisoquinolin-1(2H)-one]
0.04 to 0.2	Nc1ncc(-c2cc([N+](=O)[O-])cc(F)c2F)cc1-c1ccc2c(c1)CCNC2=O [Compound I-18, 6-(2-amino-5-(2,3-difluoro-5-nitrophenyl)pyridin-3-yl)-3,4-dihydroisoquinolin-1(2H)-one]
0.2 to 0.9	NC(=O)c1ccc(-c2cc(-c3cc([N+](=O)[O-])ccc3F)cnc2N)cc1Cl [Compound I-30, 4-(2-amino-5-(2-fluoro-5-nitrophenyl)pyridin-3-yl)-2-chlorobenzamide]
0.2 to 0.9	NC(=O)c1ccc(-c2cc(-c3cc([N+](=O)[O-])ccc3F)cnc2N)cc1 [Compound I-31, 4-(2-amino-5-(2-fluoro-5-nitrophenyl)pyridin-3-yl)benzamide]
0.2 to 0.9	Nc1ncc(-c2cc([N+](=O)[O-])cnc2F)cc1-c1ccc2c(c1)CCNC2=O [Compound I-39, 6-(6-amino-2′-fluoro-5′-nitro-[3,3′-bipyridin]-5-yl)-3,4-dihydroisoquinolin-1(2H)-one]
0.04 to 0.2	Nc1ncc(-c2ccc3ncsc3c2)cc1-c1ccc2c(c1)CCNC2=O [Compound I-44, 6-(2-amino-5-(benzo[d]thiazol-6-yl)pyridin-3-yl)-3,4-dihydroisoquinolin-1(2H)-one]
0.04 to 0.2	C#Cc1cc(F)c(-c2cnc(N)c(-c3ccc4c(c3)CCNC4=O)c2)cc1[N+](=O)[O-] [Compound I-45, 6-(2-amino-5-(4-ethynyl-2-fluoro-5-nitrophenyl)pyridin-3-yl)-3,4-dihydroisoquinolin-1(2H)-one]
< 0.04	CCOc1cc(S(=O)(=O)N(C)C2CC2)ccc1-c1cnc(N)c(-c2ccc3c(c2)CCNC3=O)c1 [Compound I-47, 4-(6-amino-5-(1-oxo-1,2,3,4-tetrahydroisoquinolin-6-yl)pyridin-3-yl)-N-cyclopropyl-3-ethoxy-N-methylbenzenesulfonamide]
< 0.04	CC(C)Oc1cc(S(=O)(=O)N(C)C2CC2)ccc1-c1cnc(N)c(-c2ccc3c(c2)CCNC3=O)c1 [Compound I-48, 4-(6-amino-5-(1-oxo-1,2,3,4-tetrahydroisoquinolin-6-yl)pyridin-3-yl)-N-cyclopropyl-3-isopropoxy-N-methylbenzenesulfonamide]
< 0.04	COc1cc(S(=O)(=O)NC2CC2)ccc1-c1cnc(N)c(-c2ccc3c(c2)CCNC3=O)c1 [Compound I-49, 4-(6-amino-5-(1-oxo-1,2,3,4-tetrahydroisoquinolin-6-yl)pyridin-3-yl)-N-cyclopropyl-3-methoxybenzenesulfonamide]
0.04 to 0.2	COc1cc(S(=O)(=O)N(C)C2CCCCC2)ccc1-c1cnc(N)c(-c2ccc3c(c2)CCNC3=O)c1 [Compound I-52, 4-(6-amino-5-(1-oxo-1,2,3,4-tetrahydroisoquinolin-6-yl)pyridin-3-yl)-N-cyclohexyl-3-methoxy-N-methylbenzenesulfonamide]
0.04 to 0.2	COc1cc(S(=O)(=O)N(C)C2CCOCC2)ccc1-c1cnc(N)c(-c2ccc3c(c2)CCNC3=O)c1 [Compound I-53, 4-(6-amino-5-(1-oxo-1,2,3,4-tetrahydroisoquinolin-6-yl)pyridin-3-yl)-3-methoxy-N-methyl-N-(tetrahydro-2H-pyran-4-yl)benzenesulfonamide]

IC50 [µM]	SMILES
0.04 to 0.2	Nc1ncc(-c2ccc([N+](=O)[O-])cc2F)cc1-c1ccc2c(c1)CCNC2=O [Compound I-54, 6-(2-amino-5-(2-fluoro-4-nitrophenyl)pyridin-3-yl)-3,4-dihydroisoquinolin-1(2H)-one]
0.04 to 0.2	Nc1ncc(-c2cccc3scnc23)cc1-c1ccc2c(c1)CCNC2=O [Compound I-55, 6-(2-amino-5-(benzo[d]thiazol-4-yl)pyridin-3-yl)-3,4-dihydroisoquinolin-1(2H)-one]
0.2 to 0.9	Nc1ncc(-c2cncc3ncsc23)cc1-c1ccc2c(c1)CCNC2=O [Compound I-56, 6-(2-amino-5-(thiazolo[4,5-c]pyridin-7-yl)pyridin-3-yl)-3,4-dihydroisoquinolin-1(2H)-one]
< 0.04	Nc1ncc(-c2ccc(F)c3ncsc23)cc1-c1ccc2c(c1)CCNC2=O [Compound I-57, 6-(2-amino-5-(4-fluorobenzo[d]thiazol-7-yl)pyridin-3-yl)-3,4-dihydroisoquinolin-1(2H)-one]
< 0.04	Nc1ncc(-c2cccc(NS(=O)(=O)C3CC3)c2)cc1-c1ccc2c(c1)CCNC2=O [Compound I-58, N-(3-(6-amino-5-(1-oxo-1,2,3,4-tetrahydroisoquinolin-6-yl)pyridin-3-yl)phenyl) cyclopropanesulfonamide]
< 0.04	Nc1ncc(-c2cccc(-c3nccs3)c2)cc1-c1ccc2c(c1)CCNC2=O [Compound I-59, 6-(2-amino-5-(3-(thiazol-2-yl)phenyl)pyridin-3-yl)-3,4-dihydroisoquinolin-1(2H)-one]
0.04 to 0.2	COc1cc(-c2nccs2)ccc1-c1cnc(N)c(-c2ccc3c(c2)CCNC3=O)c1 [Compound I-60, 6-(2-amino-5-(2-methoxy-4-(thiazol-2-yl)phenyl)pyridin-3-yl)-3,4-dihydroisoquinolin-1(2H)-one]
< 0.04	CN1CCc2cc(-c3cc(-c4ccc(S(=O)(=O)N(C)C5CC5)cc4F)cnc3N)ccc2C1=O [Compound I-62, 4-(6-amino-5-(2-methyl-1-oxo-1,2,3,4-tetrahydroisoquinolin-6-yl)pyridin-3-yl)-N-cyclopropyl-3-fluoro-N-methylbenzenesulfonamide]
< 0.04	CN(C1CC1)S(=O)(=O)c1ccc(-c2cnc(N)c(-c3ccc4c(=O)[nH]cnc4c3)c2)c(F)c1 [Compound I-63, 4-(6-amino-5-(4-oxo-3,4-dihydroquinazolin-7-yl)pyridin-3-yl)-N-cyclopropyl-3-fluoro-N-methylbenzenesulfonamide]
0.04 to 0.2	Nc1ncc(-c2cccc3ncsc23)cc1-c1ccc2c(=O)[nH]cnc2c1 [Compound I-64, 7-(2-amino-5-(benzo[d]thiazol-7-yl)pyridin-3-yl)quinazolin-4(3H)-one]
0.04 to 0.2	Nc1ncc(-c2ccc(NS(=O)(=O)C3CC3)cc2OCc2ccccc2)cc1-c1ccc2c(c1)CCNC2=O [Compound I-66, N-(4-(6-amino-5-(1-oxo-1,2,3,4-tetrahydroisoquinolin-6-yl)pyridin-3-yl)-3-(benzyloxy)phenyl) cyclopropanesulfonamide]
< 0.04	CC(C)Oc1cc(NS(=O)(=O)C2CC2)ccc1-c1cnc(N)c(-c2ccc3c(c2)CCNC3=O)c1 [Compound I-67, N-(4-(6-amino-5-(1-oxo-1,2,3,4-tetrahydroisoquinolin-6-yl)pyridin-3-yl)-3-isopropoxyphenyl) cyclopropanesulfonamide]
< 0.04	CC(C)Oc1cc(S(=O)(=O)N(C)C2CC2)ccc1-c1cnc(N)c(-c2ccc3c(c2)CNC3=O)c1 [Compound I-68, 4-(6-amino-5-(1-oxoisoindolin-5-yl)pyridin-3-yl)-N-cyclopropyl-3-isopropoxy-N-methylbenzenesulfonamide]
< 0.04	Nc1ncc(-c2ccc(NS(=O)(=O)C3CC3)cc2OC2CCCC2)cc1-c1ccc2c(c1)CCNC2=O [Compound I-69, N-(4-(6-amino-5-(1-oxo-1,2,3,4-tetrahydroisoquinolin-6-yl)pyridin-3-yl)-3-(cyclopentyloxy)phenyl) cyclopropanesulfonamide]
0.04 to 0.2	Nc1ncc(-c2ccc(F)c3ncsc23)cc1-c1ccc2c(c1)CNC2=O [Compound I-70, 5-(2-amino-5-(4-fluorobenzo[d]thiazol-7-yl)pyridin-3-yI)isoindolin-1-one]
0.2 to 0.9	Nc1ncc(-c2cccc(S(N)(=O)=O)c2)cc1-c1ccc2c(c1)CCNC2=O [Compound I-71, 3-(6-amino-5-(1-oxo-1,2,3,4-tetrahydroisoquinolin-6-yl)pyridin-3-yl)benzenesulfonamide]
0.04 to 0.2	Nc1ncc(-c2cc3scnc3cc2F)cc1-c1ccc2c(c1)CCNC2=O [Compound I-73, 6-(2-amino-5-(5-fluorobenzo[d]thiazol-6-yl)pyridin-3-yl)-3,4-dihydroisoquinolin-1(2H)-one]

SMILES	IC50 [µM]
COc1cc(C#N)ccc1-c1cnc(N)c(-c2ccc3c(c2)CCNC3=O)c1 [Compound I-61, 4-(6-amino-5-(1-oxo-1,2,3,4-tetrahydroisoquinolin-6-yl)pyridin-3-yl)-3-methoxybenzonitrile]	< 0.04
